Test results reported in ChEMBL document CHEMBL5241113, “Total Heterologous Biosynthesis of Fungal Natural Products in Aspergillus nidulans” (2022).
Values after ≈ are worked out from the molar mass of the structure shown.

System: Nematoda
Experiment: Nematocidal activity
Format: functional

SMILES	LC50 [µg/mL]
CC(=O)O[C@@H](C)C[C@@H](O)[C@@H](C)[C@@H](O)[C@@H](C)C[C@H](C)[C@@H]1OC(=O)[C@H](C)NC(=O)C[C@@H](O)C[C@H](O)[C@H](C)C[C@H]1C	0.5 (≈ 0.916 µM)
CC(=O)O[C@H](C[C@H](C)O)[C@@H](C)[C@@H](O)[C@@H](C)C[C@H](C)[C@@H]1OC(=O)[C@H](C)NC(=O)C[C@@H](O)C[C@H](O)[C@H](C)C[C@H]1C	0.5 (≈ 0.916 µM)
